The test system of one test is PARP. As to the kind of experiment: Western blot of PAR, a direct product of PARP. The conditions noted are these: MDA-MB-231 (2 μM) and OVCAR5 (0.5 μM) cells, 48 h. It counts as cell-based, human. As to the method: Cells were washed with PBS, collected with scraper, and then lysed in RIPA buffer containing 1× protease and phosphatase inhibitors for 30 min on ice. The supernatants were collected by centrifugation at full speed for 10 min at 4 °C and subjected to SDS-PAGE followed by immunoblotting as described before. Signals were detected using enhanced chemiluminescence (Millipore, Burlington, MA, USA) and captured by the G: BOX Chemi XRQ gel doc System (Syngene, Cambridge, UK).
Figure 3 ZC-22 inhibits CDK4/6 and PARP to induce cell-cycle arrest, DNA damage, and apoptosis in breast and ovarian cancer cells. (A,B) MDA-MB-231 cells were treated with 2 μM LY2835219 (LY-2) or ZC-22. […] The levels of CDK4/6 and p-Rb/Rb were determined by Western blot (A). Cell-cycle distribution was analyzed by flow cytometry (B). […] (D,E) Representative pictures (left) and quantification of percentage (right) of γH2A.X-positive cells in MDA-MB-231 cells treated with 2 μM OLA or ZC-22 for 24 h (D), or OVCAR5 cells treated with 0.5 μM OLA or ZC-22 for 24 h (E). Values are means ± SD, n = 3. * p < 0.05, ** p < 0.01, and *** p < 0.001 for comparisons with the DMSO-treated group. p value was calculated using an unpaired t-test. […] Values are means ± SD, n = 3. * p < 0.05, ** p < 0.01, and *** p < 0.001 vs. the DMSO-treated group. p value was calculated using an unpaired t-test. […]
For orientation: A western blot detects proteins with antibodies after separation by electrophoresis.

The test system of a further test is OVCAR5 xenograft tumors. As to the kind of experiment: Ovarian cancer xenograft mouse model, tumor growth. The format is in vivo, mice. The conditions noted are these: 1.5 mg/kg cisplatin and 50 mg/kg ZC-22 ip. As to the method: Six-week-old female athymic nude mice (Homozygous) were purchase from Vital River Laboratories (Beijing, China) and maintained under the guidelines for laboratory animals of Nankai university (NKU). Mice were injected subcutaneously with 2 × 10^6 MDA-MB-231 or 8 × 10^6 OVCAR5 cells. When tumors were 50–100 mm^3 in size, the mice were randomly grouped and treated intraperitoneal (i.p.) with 50 mg/kg of Olaparib, 50 mg/kg of LY2835219, 50 mg/kg of ZC-22, or 1.5 mg/kg of cisplatin alone or in combinations or with the vehicle (PBS containing 10% DMSO and 10% 2-hydroxy-propyl-β-cyclodextrin) every 2 days. Tumor volume was measured every 3–4 days, which was calculated as Length × Width^2/2. At the end of the study, tumor and major organ tissues were harvested by surgery. For histopathological analysis, tissue samples were washed with PBS, fixed in 4% paraformaldehyde (PFA), paraffin-embedded, and sectioned into 7 μm thickness. […]
Figure 7 ZC-22 increases the efficacy of cisplatin treatment in ovarian cancer cells in vivo. […] Tumor volumes were measured every 2–3 days. […] (B,C) Pictures (B) and quantification of the size (C) of the OVCAR5 xenograft tumors at the end points. […] (D,E) Representative pictures (D) and quantification of percentage (E) of Ki67 and γH2A.X-positive cells in immunohistochemical staining of the OVCAR5 xenograft tumor tissues. […]

The values that follow come from PMC8911181, “A Novel CDK4/6 and PARP Dual Inhibitor ZC-22 Effectively Suppresses Tumor Growth and Improves the Response to Cisplatin Treatment in Breast and Ovarian Cancer” (International Journal of Molecular Sciences, 2022).

Consider `Cc1nc2c(F)cc(-c3nc(Nc4ccc(N5CCN(C(=O)c6cc(Cc7n[nH]c(=O)c8ccccc78)ccc6F)CC5)cn4)ncc3F)cc2n1C(C)C` [ZC-22, 4-(4-fluoro-3-(4-(6-((5-fluoro-4-(4-fluoro-1-isopropyl-2-methyl-1H-benzo[d]imidazole-6-yl)pyrimidin-2-yl)amino)pyridin-3-yl)piperazine-1-carbonyl)benzyl)phthalazin-1(2H)-one], for which, in the test with PARP, the PAR expression result is “effectively inhibited PAR expression”. Moreover, the “sensitization to cisplatin treatment (tumor growth)” value with OVCAR5 xenograft tumors was “significantly sensitized ovarian cancer cells to cisplatin treatment”.
